These molecules were tested against T1, NLRP3 (Homo sapiens, UniProt Q96P20) (assay: IL-1β Secretion Assay (NLRP3-dependent IL1β secretion in THP1 cells)). Conditions: PMA-differentiated THP-1 cells; compounds incubated 20 h; 2.5 μM Nigericin 3 h; HTRF IL-1β readout; read-out: IC50 IL-1β Inhibition.
T1 construct: host or cells: THP-1 cells differentiated with PMA
Type: cell-based
Outline: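 THP-1 cells differentiated with 100 ng/mL PMA for 24 h, then given compound (7-point 3-fold series, 1:200 from DMSO) for 20 h in RPMI+5% FBS. NLRP3 activated with 2.5 μM nigericin for 3 h; secreted IL-1β measured by HTRF; IC50 from logistic fit of % inhibition.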

T1 sequence (Q96P20 whole entry): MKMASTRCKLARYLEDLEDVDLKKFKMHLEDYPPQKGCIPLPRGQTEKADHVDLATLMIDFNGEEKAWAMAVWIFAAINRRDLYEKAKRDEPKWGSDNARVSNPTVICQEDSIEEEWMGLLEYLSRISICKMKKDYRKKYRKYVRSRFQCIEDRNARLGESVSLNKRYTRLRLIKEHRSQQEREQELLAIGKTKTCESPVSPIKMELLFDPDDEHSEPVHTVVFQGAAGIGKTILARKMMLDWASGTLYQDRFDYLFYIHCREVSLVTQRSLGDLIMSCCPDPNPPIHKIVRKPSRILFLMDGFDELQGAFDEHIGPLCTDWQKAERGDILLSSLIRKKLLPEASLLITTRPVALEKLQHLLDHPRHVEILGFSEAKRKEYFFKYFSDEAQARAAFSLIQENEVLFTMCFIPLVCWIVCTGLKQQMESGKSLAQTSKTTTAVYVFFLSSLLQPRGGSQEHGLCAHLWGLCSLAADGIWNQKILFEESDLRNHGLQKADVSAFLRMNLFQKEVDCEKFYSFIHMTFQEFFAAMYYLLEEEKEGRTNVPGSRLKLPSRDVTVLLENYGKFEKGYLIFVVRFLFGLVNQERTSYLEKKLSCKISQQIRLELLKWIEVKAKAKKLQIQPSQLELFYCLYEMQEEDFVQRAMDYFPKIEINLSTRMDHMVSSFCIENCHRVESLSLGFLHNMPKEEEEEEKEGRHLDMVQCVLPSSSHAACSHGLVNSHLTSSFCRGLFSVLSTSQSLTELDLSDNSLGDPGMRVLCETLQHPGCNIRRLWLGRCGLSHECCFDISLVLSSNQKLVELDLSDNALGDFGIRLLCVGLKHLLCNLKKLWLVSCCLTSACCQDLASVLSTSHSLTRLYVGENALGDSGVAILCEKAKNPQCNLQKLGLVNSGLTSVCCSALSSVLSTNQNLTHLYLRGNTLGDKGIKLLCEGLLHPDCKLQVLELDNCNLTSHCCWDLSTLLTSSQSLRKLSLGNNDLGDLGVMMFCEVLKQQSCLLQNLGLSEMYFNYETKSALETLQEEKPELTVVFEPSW

Row | SMILES | IC50 [nM]
1 | FC(F)(F)Cc1cc(C(F)(F)F)ccc1-c1nnc(Nc2cc[nH]n2)n2cncc12 [Compound 267, N-(1H-pyrazol-3-yl)-1-[2-(2,2,2-trifluoroethyl)-4-(trifluoromethyl)phenyl]imidazo[1,5-d][1,2,4]triazin-4-amine] | 1 to 10
2 | CCN1CCC[C@@H](Nc2nnc(-c3ccc(C(F)(F)F)cc3C(N)=O)c3cc(C)nn23)C1 [Compound 372, 2-(7-{[(3R)-1-ethylpiperidin-3-yl]amino}-2-methylpyrazolo[1,5-d][1,2,4]triazin-4-yl)-5-(trifluoromethyl)benzamide] | 10 to 100
3 | COc1ccc(-c2nnc(N[C@@H]3CCCN(CCO)C3)n3cncc23)c(OC(F)F)c1 [Compound 225, 2-[(3R)-3-({1-[2-(difluoromethoxy)-4-methoxyphenyl]imidazo[1,5-d][1,2,4]triazin-4-yl}amino)piperidin-1-yl]ethan-1-ol] | 1 to 10
4 | COc1ccc(-c2nnc(N[C@H]3C[C@@](C)(O)C3)n3nc(C)cc23)c(CC(F)(F)F)c1 [Compound 387, (1s,3s)-3-({4-[4-methoxy-2-(2,2,2-trifluoroethyl)phenyl]-2-methylpyrazolo[1,5-d][1,2,4]triazin-7-yl}amino)-1-methylcyclobutan-1-ol] | 1 to 10
5 | CCN1CCC[C@@H](Nc2nnc(-c3ccc(C(F)(F)F)cc3CC(F)(F)F)c3cncn23)C1 [Compound 261, N-[(3R)-1-ethylpiperidin-3-yl]-1-[2-(2,2,2-trifluoroethyl)-4-(trifluoromethyl)phenyl]imidazo[1,5-d][1,2,4]triazin-4-amine] | < 1
6 | O=C1NCCC1Nc1nnc(-c2ccc(C(F)(F)F)cc2CC(F)(F)F)c2cccn12 (centres unmarked) [Compound 77, 3-({1-[2-(2,2,2-trifluoroethyl)-4-(trifluoromethyl)phenyl]pyrrolo[1,2-d][1,2,4]triazin-4-yl}amino)pyrrolidin-2-one] | 1 to 10
7 | C[C@]1(CO)C[C@@H](Nc2nnc(-c3ccc(C(F)(F)F)cc3OC(F)(F)F)c3cncn23)C1 [Compound 340, [(1s,3s)-1-methyl-3-({1-[2-(trifluoromethoxy)-4-(trifluoromethyl)phenyl]imidazo[1,5-d][1,2,4]triazin-4-yl}amino)cyclobutyl]methanol] | 1 to 10
8 | COc1ccc(-c2nnc(N[C@@H]3CCCN(CCO)C3)n3ccc(F)c23)c(C(F)(F)F)c1 [Compound 18, 2-[(3R)-3-({8-fluoro-1-[4-methoxy-2-(trifluoromethyl)phenyl]pyrrolo[1,2-d][1,2,4]triazin-4-yl}amino)piperidin-1-yl]ethan-1-ol] | 1 to 10
9 | CC(C)(O)C1CC(Nc2nnc(-c3ccc(C(F)(F)F)cc3CC(F)(F)F)c3cncn23)C1 (centres unmarked) [Compound 339, 2-[3-({1-[2-(2,2,2-trifluoroethyl)-4-(trifluoromethyl)phenyl]imidazo[1,5-d][1,2,4]triazin-4-yl}amino)cyclobutyl]propan-2-ol] | 10 to 100
10 | C[C@]1(O)C[C@@H](Nc2nnc(-c3ccc(C(F)(F)F)cc3CC(F)(F)F)c3cccn23)C1 [Compound 41, (1s,3s)-1-methyl-3-({1-[2-(2,2,2-trifluoroethyl)-4-(trifluoromethyl)phenyl]pyrrolo[1,2-d][1,2,4]triazin-4-yl}amino)cyclobutan-1-ol] | 1 to 10
11 | Cc1ccc(-c2nnc(N[C@H]3C[C@@](C)(O)C3)n3cncc23)c(OC(F)F)c1 [Compound 344, (1s,3s)-3-({1-[2-(difluoromethoxy)-4-methylphenyl]imidazo[1,5-d][1,2,4]triazin-4-yl}amino)-1-methylcyclobutan-1-ol] | 10 to 100
12 | FC(F)Oc1ccc(-c2nnc(Nc3cc[nH]n3)n3cncc23)c(OC(F)(F)F)c1 [Compound 296, 1-[4-(difluoromethoxy)-2-(trifluoromethoxy)phenyl]-N-(1H-pyrazol-3-yl)imidazo[1,5-d][1,2,4]triazin-4-amine] | 10 to 100
13 | COc1ccc(-c2nnc(N[C@H]3C[C@@](C)(O)C3)n3ccc(F)c23)c(C(F)(F)F)c1 [Compound 130, (1s,3s)-3-({8-fluoro-1-[4-methoxy-2-(trifluoromethyl)phenyl]pyrrolo[1,2-d][1,2,4]triazin-4-yl}amino)-1-methylcyclobutan-1-ol] | 1 to 10
14 | Cc1cc2c(-c3ccc(C4CC4)cc3C(F)F)nnc(N[C@@H]3CCCN(C)C3)n2n1 [Compound 363, 4-[4-cyclopropyl-2-(difluoromethyl)phenyl]-2-methyl-N-[(3R)-1-methylpiperidin-3-yl]pyrazolo[1,5-d][1,2,4]triazin-7-amine] | 1 to 10

Next, values leading:

Row | IC50 [nM] | SMILES
15 | 1 to 10 | O[C@@H]1CCCC[C@H]1Nc1nnc(-c2ccc(C(F)(F)F)cc2OC(F)(F)F)c2ccnn12 [Compound 398, (1R,2R)-2-({4-[2-(trifluoromethoxy)-4-(trifluoromethyl)phenyl]pyrazolo[1,5-d][1,2,4]triazin-7-yl}amino)cyclohexan-1-ol]
16 | 1 to 10 | COc1ccc(-c2nnc(N[C@H]3C[C@@H](CO)C3)n3cncc23)c(OC(F)(F)F)c1 [Compound 291, [(1s,3s)-3-({1-[4-methoxy-2-(trifluoromethoxy)phenyl]imidazo[1,5-d][1,2,4]triazin-4-yl}amino)cyclobutyl]methanol]
17 | 1 to 10 | COc1ccc(-c2nnc(N[C@@H]3CCCN(C)C3)n3cccc23)c(OC(F)(F)F)c1 [Compound 8, 1-[4-methoxy-2-(trifluoromethoxy)phenyl]-N-[(3R)-1-methylpiperidin-3-yl]pyrrolo[1,2-d][1,2,4]triazin-4-amine]
18 | 1 to 10 | COc1ccc(-c2nnc(N[C@@H]3CCCN(C)C3)n3ccc(F)c23)c(OC(F)(F)F)c1 [Compound 39, 8-fluoro-1-[4-methoxy-2-(trifluoromethoxy)phenyl]-N-[(3R)-1-methylpiperidin-3-yl]pyrrolo[1,2-d][1,2,4]triazin-4-amine]
19 | 10 to 100 | COc1ccc(-c2nnc(N[C@H]3CCCC[C@@H]3O)n3cccc23)c(OC(F)(F)F)c1 [Compound 81, (1S,2S)-2-({1-[4-methoxy-2-(trifluoromethoxy)phenyl]pyrrolo[1,2-d][1,2,4]triazin-4-yl}amino)cyclohexan-1-ol]
20 | < 1 | O[C@@H]1CCCC[C@H]1Nc1nnc(-c2ccc(C(F)(F)F)cc2CC(F)(F)F)c2cncn12 [Compound 282, (1R,2R)-2-({1-[2-(2,2,2-trifluoroethyl)-4-(trifluoromethyl)phenyl]imidazo[1,5-d][1,2,4]triazin-4-yl}amino)cyclohexan-1-ol]
21 | 1 to 10 | C[C@]1(O)C[C@@H](Nc2nnc(-c3ccc(OC(F)F)cc3OC(F)(F)F)c3cccn23)C1 [Compound 88, (1s,3s)-3-({1-[4-(difluoromethoxy)-2-(trifluoromethoxy)phenyl]pyrrolo[1,2-d][1,2,4]triazin-4-yl}amino)-1-methylcyclobutan-1-ol]
22 | 1 to 10 | COc1ccc(-c2nnc(N[C@H]3C[C@@](C)(O)C3)n3cncc23)c(OC(F)(F)F)c1 [Compound 219, (1s,3s)-3-({1-[4-methoxy-2-(trifluoromethoxy)phenyl]imidazo[1,5-d][1,2,4]triazin-4-yl}amino)-1-methylcyclobutan-1-ol]
23 | < 1 | CCN1CC[C@@H](O)[C@@H](Nc2nnc(-c3ccc(OC)cc3OC(F)(F)F)c3cc(C)cn23)C1 [Compound 135, (3S,4R)-1-ethyl-3-({1-[4-methoxy-2-(trifluoromethoxy)phenyl]-7-methylpyrrolo[1,2-d][1,2,4]triazin-4-yl}amino)piperidin-4-ol]

— patent US20250179078A1, “INHIBITORS OF NLRP3” (PTC THERAPEUTICS, INC., priority 2022, published 2025)
